Measurements: the supplement of paper PMC11451515

System: NOMO1
Test: cell viability relative to DMSO control; higher = less cytotoxic
Conditions: 48 h
Procedure, shortened: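 NOMO1 or SEM cells were plated at 500 cells/well and P12-Ichikawa cells at 1000 cells/well in 1536-well plates (5 μl), after each leukemia line had been adapted for at least four passages in each medium. Pin dosing delivered library compounds in DMSO at 11 threefold concentrations, 47 μM to 0.79 nM. CellTiter-Glo One luminescence was read after 48 h at 37°C. Viability is reported as a per-plate percentage of DMSO wells, with cell-free wells as background.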

[1] = HPLM + 10% dialyzed FBS, 0.000781 µM
[2] = HPLM + 10% dialyzed FBS, 0.00234 µM
[3] = HPLM + 10% dialyzed FBS, 0.00702 µM
[4] = HPLM + 10% dialyzed FBS, 0.0211 µM
[5] = HPLM + 10% dialyzed FBS, 0.0632 µM
[6] = HPLM + 10% dialyzed FBS, 0.19 µM
[7] = HPLM + 10% dialyzed FBS, 0.569 µM
[8] = HPLM + 10% dialyzed FBS, 1.71 µM
[9] = HPLM + 10% dialyzed FBS, 5.12 µM
[10] = HPLM + 10% dialyzed FBS, 15.4 µM
[11] = HPLM + 10% dialyzed FBS, 46.1 µM
[12] = RPMI 5 mM glucose + 10% FBS, 0.000781 µM
[13] = RPMI 5 mM glucose + 10% FBS, 0.00234 µM
[14] = RPMI 5 mM glucose + 10% FBS, 0.00702 µM
[15] = RPMI 5 mM glucose + 10% FBS, 0.0211 µM
[16] = RPMI 5 mM glucose + 10% FBS, 0.0632 µM
[17] = RPMI 5 mM glucose + 10% FBS, 0.19 µM
[18] = RPMI 5 mM glucose + 10% FBS, 0.569 µM
[19] = RPMI 5 mM glucose + 10% FBS, 1.71 µM
[20] = RPMI 5 mM glucose + 10% FBS, 5.12 µM
[21] = RPMI 5 mM glucose + 10% FBS, 15.4 µM
[22] = RPMI 5 mM glucose + 10% FBS, 46.1 µM
[23] = RPMI 5 mM glucose + 10% dialyzed FBS, 0.000781 µM
[24] = RPMI 5 mM glucose + 10% dialyzed FBS, 0.00234 µM
[25] = RPMI 5 mM glucose + 10% dialyzed FBS, 0.00702 µM
[26] = RPMI 5 mM glucose + 10% dialyzed FBS, 0.0211 µM
[27] = RPMI 5 mM glucose + 10% dialyzed FBS, 0.0632 µM
[28] = RPMI 5 mM glucose + 10% dialyzed FBS, 0.19 µM
[29] = RPMI 5 mM glucose + 10% dialyzed FBS, 0.569 µM
[30] = RPMI 5 mM glucose + 10% dialyzed FBS, 1.71 µM
[31] = RPMI 5 mM glucose + 10% dialyzed FBS, 5.12 µM
[32] = RPMI 5 mM glucose + 10% dialyzed FBS, 15.4 µM
[33] = RPMI 5 mM glucose + 10% dialyzed FBS, 46.1 µM

Row | Compound | cell viability [1] [%] | cell viability [2] [%] | cell viability [3] [%] | cell viability [4] [%] | cell viability [5] [%] | cell viability [6] [%] | cell viability [7] [%] | cell viability [8] [%] | cell viability [9] [%] | cell viability [10] [%] | cell viability [11] [%] | cell viability [12] [%] | cell viability [13] [%] | cell viability [14] [%] | cell viability [15] [%] | cell viability [16] [%] | cell viability [17] [%] | cell viability [18] [%] | cell viability [19] [%] | cell viability [20] [%] | cell viability [21] [%] | cell viability [22] [%] | cell viability [23] [%] | cell viability [24] [%] | cell viability [25] [%] | cell viability [26] [%] | cell viability [27] [%] | cell viability [28] [%] | cell viability [29] [%] | cell viability [30] [%] | cell viability [31] [%] | cell viability [32] [%] | cell viability [33] [%]
1 | COc1cc2c(cc1OC)CC(=O)N(CCCN(C)C[C@H]1Cc3cc(OC)c(OC)cc31)CC2.Cl | 126 | 115 | 107 | 122 | 97.1 | 111 | 122 | 112 | 114 | 115 | 109 | 104 | 105 | 99.2 | 106 | 100 | 102 | 102 | 99.6 | 105 | 97.5 | 95.3 | 111 | 114 | 130 | 115 | 113 | 106 | 92.6 | 110 | 110 | 93 | 100
2 | CSCC[C@@H](NC(=O)[C@@H](Cc1ccccc1)NC(=O)CNC(=O)CNC(=O)[C@@H](N)Cc1ccc(O)cc1)C(=O)O | 77.4 | 90.8 | 110 | 28.1 | 110 | 121 | 121 | 104 | 92 | 100 | 109 | 91.8 | 89.3 | 105 | 22.1 | 110 | 103 | 102 | 100 | 95.4 | 101 | 97.9 | 87.1 | 97.4 | 94.6 | 34.8 | 88.3 | 103 | 97.6 | 111 | 99.9 | 113 | 109
3 | CNc1nccc(-c2cccnc2Oc2cc(C(=O)Nc3cccc(C(F)(F)F)c3)ccc2C)n1 | 104 | 111 | 120 | 135 | 130 | 147 | 127 | 117 | 115 | 82.7 | 110 | 115 | 102 | 112 | 125 | 120 | 133 | 130 | 119 | 112 | 87.7 | 98.2 | 98 | 105 | 108 | 116 | 108 | 134 | 105 | 125 | 125 | 78.2 | 99.1
4 | Cc1cccc(Nc2nc(-c3ccncc3)cs2)c1 | 96.3 | 138 | 121 | 142 | 137 | 140 | 111 | 145 | 142 | 136 | 134 |  |  |  |  |  |  |  |  |  |  |  | 122 | 121 | 128 | 123 | 125 | 135 | 134 | 129 | 128 | 134 | 107
5 | CC/1=C(/N2[C@H](SC1)[C@H](NC(=O)[C@H](N)\C3=C\C\C=C/C3)C2=O)C(O)=O | 97.5 | 110 | 103 | 109 | 108 | 121 | 123 | 135 | 121 | 115 | 121 | 110 | 119 | 114 | 118 | 119 | 124 | 109 | 117 | 129 | 125 | 127 | 102 | 109 | 104 | 124 | 115 | 108 | 114 | 121 | 126 | 109 | 118
6 | Cc1[nH]c2ccccc2c1CCNCc1ccc(/C=C/C(=O)NO)cc1 | 102 | 108 | 126 | 99.9 | 137 | 103 | 61.8 | 14.2 | 9 | 8.41 | 8.11 | 111 | 118 | 108 | 106 | 110 | 102 | 82.9 | 10.9 | 7.29 | 7.8 | 7.5 | 106 | 122 | 116 | 99.5 | 122 | 110 | 84.4 | 13 | 8.52 | 9.32 | 7.81
7 | N=C(NCCCCCCNC(=N)NC(=N)Nc1ccc(Cl)cc1)NC(=N)Nc1ccc(Cl)cc1 | 82 | 88.2 | 100 | 90.4 | 106 | 111 | 105 | 113 | 89 | 87.6 | 56.5 | 75.4 | 92.9 | 79.1 | 96.3 | 96.1 | 85.5 | 93.2 | 88.5 | 91.1 | 87.4 | 30.9 | 79.5 | 88.9 | 90.6 | 90.5 | 105 | 103 | 101 | 105 | 100 | 85.6 | 41.5
8 | Cn1c(CNc2ccc(C(=N)N)cc2)nc2cc(C(=O)N(CCC(=O)O)c3ccccn3)ccc21 | 109 | 106 | 103 | 109 | 103 | 95.5 | 116 | 119 | 125 | 124 | 111 | 92 | 92.8 | 94.6 | 95.5 | 99.3 | 98.7 | 97.7 | 109 | 97.3 | 103 | 111 | 94.5 | 91.3 | 95.9 | 93.8 | 113 | 99.6 | 94 | 104 | 96 | 110 | 116
9 | C\C1=C(\C=C(\C#N)C(=O)N1)C2=CC=NC=C2 | 98.3 | 114 | 117 | 116 | 133 | 118 | 123 | 131 | 114 | 103 | 108 | 94.7 | 108 | 110 | 104 | 109 | 111 | 106 | 127 | 103 | 97.5 | 71.5 | 112 | 108 | 119 | 118 | 115 | 114 | 120 | 115 | 114 | 110 | 81.2
10 | O=C(Nc1c(Cl)cncc1Cl)c1ccc(OC(F)F)c(OCC2CC2)c1 | 108 | 126 | 111 | 97.5 | 123 | 105 | 130 | 124 | 109 | 98.5 | 100 | 94.4 | 102 | 101 | 99.1 | 108 | 106 | 120 | 107 | 102 | 103 | 99.7 | 94.5 | 106 | 112 | 101 | 107 | 112 | 106 | 114 | 97.8 | 99.6 | 102
11 | CC(C)C(=O)Oc1ccc(CO)cc1[C@H](CCN(C(C)C)C(C)C)c1ccccc1 | 99.1 | 104 | 85.7 | 87 | 85.6 | 91.8 | 93.3 | 88.9 | 78.9 | 81.1 | 71.7 | 85.2 | 78.8 | 88.8 | 93.3 | 82.5 | 76 | 80 | 83.4 | 85.2 | 79.1 | 78.4 | 78.3 | 79.6 | 86.4 | 78.9 | 73.8 | 79.2 | 73.5 | 80.8 | 77.4 | 82.5 | 79.1
12 | CC(C)C[C@@H](C=O)NC(=O)[C@H](CC(C)C)NC(=O)[C@H](CC(C)C)NC(=O)OCc1ccccc1 |  |  |  |  |  |  |  |  |  |  |  | 115 | 119 | 130 | 143 | 134 | 128 | 78.1 | 42.1 | 10.2 | 8.45 | 7.38 |  |  |  |  |  |  |  |  |  |  | 
13 | NC(=O)c1ccc(I)c([N+](=O)[O-])c1 | 130 | 123 | 110 | 138 | 126 | 140 | 128 | 117 | 126 | 124 | 117 | 125 | 125 | 120 | 131 | 119 | 125 | 126 | 140 | 133 | 120 | 118 | 123 | 120 | 137 | 143 | 148 | 132 | 148 | 139 | 143 | 158 | 130
14 | CCC(C)(C)c1ccc(CC(C)CN2C[C@@H](C)O[C@@H](C)C2)cc1 (stereo not given in full) | 87.4 | 91.8 | 87.9 | 82 | 93.3 | 84.8 | 97 | 80.9 | 93.6 | 87.1 | 87.9 | 71.5 | 74.7 | 73.5 | 77.9 | 77.5 | 76.5 | 75.8 | 82.3 | 77.9 | 80.7 | 77.5 | 69.8 | 87.9 | 78.8 | 77 | 83.4 | 82 | 90.2 | 84 | 85.2 | 86.2 | 88
15 | Cc1cc2c(F)c(Oc3ncnn4cc(OC[C@@H](C)O)c(C)c34)ccc2[nH]1 | 107 | 87.6 | 103 | 103 | 97.5 | 90.4 | 99.2 | 101 | 98.4 | 88.9 | 69.6 | 86.5 | 103 | 101 | 105 | 98.2 | 98.1 | 94.1 | 88.6 | 88.8 | 97 | 83.6 | 88.5 | 104 | 102 | 92 | 90.3 | 100 | 98.7 | 84.9 | 109 | 79.8 | 67.1
16 | OC1CCC(Nc2ncc3nc(Nc4c(F)cc(F)cc4F)n([C@@H]4CCOC4)c3n2)CC1 (stereo not given in full) | 112 | 119 | 131 | 143 | 126 | 142 | 143 | 134 | 141 | 131 | 128 | 106 | 113 | 108 | 113 | 107 | 118 | 105 | 110 | 125 | 115 | 121 | 102 | 119 | 115 | 119 | 114 | 128 | 122 | 125 | 135 | 131 | 126
